Here are results for two molecules from patent publication US20220233133A1, “HUMAN TACTILE PREPULSE […]” (President and Fellows of Harvard College, priority 2019, published 2022).

Experiment [1] concerns Shank3 conditional mutant mice. The experiment in a line: Tactile PPI performance in Shank3 conditional mutant mice. Type of experiment: in vivo. The note with it: 30 minutes following administration of 2 mg/kg, versus saline. The protocol: (§1) Tactile PPI performance in Mecp2 or Shank3 conditional mutant mice, and their control littermates, 30 minutes following administration of either saline or 2 mg/kg compound 5.

The subject of experiment [2] is Mecp2 conditional mutant mice. Kind of experiment: Tactile PPI performance in Mecp2 conditional mutant mice. The experiment is classed as in vivo. Conditions: 30 minutes following administration of 2 mg/kg, versus saline. As to the method: as §1
Another experiment has as its system ASD mouse models. The note with it: range of ASD mouse models (Orefice et al., 2019, Cell 178, 867-886); cited from earlier work.

Take `NC1C=C(C(=O)O)CCC1` (stereo not drawn) [compound 5, 3-aminocyclohex-1-ene-1-carboxylic acid]: the “hairy skin hypersensitivity (tactile PPI performance)” value in experiment [1] and in experiment [2] was “reduces hairy skin hypersensitivity” each time.
As for `Nc1[nH]c(=O)nc2nc[nH]c12` [isoguanine], in the experiment with ASD mouse models, the anxiety entry is “useful to reduce”.
